In patent US20240335548A1, “MACROMOLECULES” (Starpharma Pty Ltd, priority 2011, published 2024):

Experiments:
HT-29 = experiment: IC50 using the MTT assay; format: cell-based; details: 72 hours
Protocol: (§1) The IC50 using the MTT assay [Wilson, Anne P. (2000). “Chapter 7: Cytotoxicity and viability”. In Masters, John R. W. Animal Cell Culture: A Practical Approach. Vol. 1 (3rd ed.). Oxford: Oxford University Press] was determined against various cancer cell lines after 72 hours.

MCF-7 = experiment: IC50 using the MTT assay; format: cell-based; details: 72 hours
Protocol: as §1

H460 = experiment: IC50 using the MTT assay; format: cell-based; details: 72 hours
Protocol: as §1

A2780 = experiment: IC50 using the MTT assay; format: cell-based; details: 72 hours
Protocol: as §1

DU-145 = experiment: IC50 using the MTT assay; format: cell-based; details: 72 hours
Protocol: as §1

PC-3 = experiment: IC50 using the MTT assay; format: cell-based; details: 72 hours
Protocol: as §1

A549 = experiment: IC50 using the MTT assay; format: cell-based; details: 72 hours
Protocol: as §1

HCT-116 = experiment: IC50 using the MTT assay; format: cell-based; details: 72 hours
Protocol: as §1

[1] = Particle sizing using Dynamic Light Scattering; format: physicochemical
[2] = Water solubility study on drug loaded dendrimers; format: physicochemical; details: for Water solubility of dendrimer: deionised water, until full dissolution; for Equivalent drug solubility on dendrimer: water solubility x % drug loading/100
Protocol: Protocol: To 30 mg of dendrimer (freeze-dried from water) was added 100 μL of deionised water. After mixing for 10 minutes, additional aliquots of water (10-30 μL per addition) were added with vortexing and incubation for 10 mins until full dissolution was obtained. This amount is represented in Table 1 as the water solubility of the dendrimer. The equivalent drug solubility is determined by multiplying the % drug loading/100 and is represented in Table 1 (column 3) as Equivalent drug solubility on dendrimer. Finally, the fold increase is obtained by dividing the Equivalent drug solubility on dendrimer by the solubility of the drug and is represented in Table 1 (column 4).

MDA-MB-231 tumours = experiment: Xenograft MDA-MB-231 efficacy study; format: in vivo, female Balb/c nude mice
ES2 (Ovarian) = experiment: Cell growth inhibition SRB assay; format: cell-based
Protocol: (§2) All solutions were prepared in saline (except docetaxel which was made in ethanol). All solutions were stored at −20° C. All values were based on the equivalent drug loading.

H460 (Lung) = experiment: Cell growth inhibition SRB assay; format: cell-based
Protocol: as §2

PC-3 (Prostate) = experiment: Cell growth inhibition SRB assay; format: cell-based
Protocol: as §2

[3] = day 16, one day after final dose
Protocol: The 20 mice were randomised into 5 groups of four mice (mean tumour volume ˜90 mm^3). Animals were eye bled in the morning for baseline blood cell counts and then drug dosing commenced later that day (day 1). […] A second eye bleed was performed on day 11 (Table 7 A-C). Mice were killed one day following the final drug dose (day 16).

[4] = Pharmacokinetic analysis, plasma half-life after IV administration; details: tritium labelled, IV administration into rats
Protocol: The plasma half-lives of tritium labelled docetaxel and the construct from Experiment 8 (c) (prepared using tritium labelled docetaxel) after IV administration into rats were determined (Kaminskas, L. M., Boyd, B. J., Karellas, P., Krippner, G. Y., Lessene, R., Kelly, B and Porter, C. J. H. “The Impact of Molecular Weight and PEG Chain Length on the Systemic Pharmacokinetics of PEGylated Poly-L-Lysine Dendrimers” Molecular Pharm. 2008, 5, 449-463).

[5] = Plasma stability study: docetaxel release in mouse plasma; format: in vitro ADME; details: 37° C.
Protocol: Protocol: To 0.5 mL of mouse plasma was added 0.1 mL of dendrimer solution (2 mg/mL, drug equivalent in saline). The mixtures were vortexed (30 s) then incubated at 37° C. At various timepoints (0.5, 2.5, 4.5, 22 hours) 0.1 mL aliquots were removed and added to 0.2 mL ACN. The resulting mixtures were vortexed (30 s), centrifuged (10 min, 4° C.) filtered and analysed by HPLC (C8, 3.9×150 mm, 5 μm, wavelength=243 nm, 10 μL injections, gradient: 40-80% ACN/H2O (1-7 min), 80% ACN (7-9 min), 80-40% ACN (9-11 min), 40% ACN (11-15 min), 10 mM ammonium formate, pH 7.40) which when compared against a standard (2 mg//mL) provided the concentration of free docetaxel in the sample.

MDA-MB-231 (Breast) = experiment: Cell growth inhibition SRB assay; format: cell-based
Protocol: as §2

A549 (Lung) = experiment: Cell growth inhibition SRB assay; format: cell-based
Protocol: as §2

A2058 (Melanoma) = experiment: Cell growth inhibition SRB assay; format: cell-based
Protocol: as §2

MCAS (Ovarian) = experiment: Cell growth inhibition SRB assay; format: cell-based
Protocol: as §2

HT29 (Colon) = experiment: Cell growth inhibition SRB assay; format: cell-based
Protocol: as §2

HCT116 (Colon) = experiment: Cell growth inhibition SRB assay; format: cell-based
Protocol: as §2

DU145 (Prostate) = experiment: Cell growth inhibition SRB assay; format: cell-based
Protocol: as §2

[6] = Day 1, i.v. day 1, 8, 15, docetaxel 15 mg/kg, Exp 3 (b) 20 mg/kg, Exp 8 (c) […] mg/kg

## BHALys[Lys]32[α-TDA-DTX]32[ε-PolyPEG2000]32 [Example 19]
HT-29
  IC50: 5.9 nM
MCF-7
  IC50: 6.3 nM
H460
  IC50: 23.7 nM
A2780
  IC50: 6.3 nM
DU-145
  IC50: 15.5 nM
PC-3
  IC50: 7.4 nM
A549
  IC50: 7.7 nM
HCT-116
  IC50: 6.5 nM
[1]
  particle size, range of concentration dependent averages: 10.9-15.5 nm
[2]
  Water solubility of dendrimer: 477 mg/mL
  Equivalent drug solubility on dendrimer: 109 mg/mL
[2]; equivalent drug solubility divided by solubility of the drug
  Fold increase in drug solubility: 21900

## BHALys[Lys]32[α-TDA-DTX]32[ε-PEG1100]32 [Example 8 (c)]
MDA-MB-231 tumours; [6]
  Mean tumour Volumne mm^3 (sd): 111.73 (6.41), mm^3
MDA-MB-231 tumours; Day 9, same doses
  Mean tumour Volumne mm^3 (sd): 108.86 (9.31), mm^3
MDA-MB-231 tumours; Day 19, same doses
  Mean tumour Volumne mm^3 (sd): 30.59 (1.64), mm^3
MDA-MB-231 tumours; Day 29, same doses
  Mean tumour Volumne mm^3 (sd): 11.58 (1.2), mm^3
MDA-MB-231 tumours; Day 40, same doses
  Mean tumour Volumne mm^3 (sd): 5.75 (0.92), mm^3
MDA-MB-231 tumours; Day 61, same doses
  Mean tumour Volumne mm^3 (sd): 4 (0), mm^3
MDA-MB-231 tumours; Day 81, same doses
  Mean tumour Volumne mm^3 (sd): 0.5 (0), mm^3
MDA-MB-231 tumours; Day 100, same doses
  Mean tumour Volumne mm^3 (sd): 1.67 (0.74), mm^3
MDA-MB-231 tumours; Day 120, same doses
  Mean tumour Volumne mm^3 (sd): 16.2 (10.24), mm^3
[2]
  Water solubility of dendrimer: 131 mg/mL
  Equivalent drug solubility on dendrimer: 41 mg/mL
ES2 (Ovarian)
  GI50: 12 nM
H460 (Lung)
  GI50: 7 nM
PC-3 (Prostate)
  GI50: 9.5 nM
[3]
  Mean Tumour Weights (g) (sd): 0.033 g
[4]
  plasma half-life: approximately 30 hour
[5]; 0.5 hours
  Docetaxel release in plasma: 4.5 percentage of total docetaxel
[5]; 2.5 hours
  Docetaxel release in plasma: 13.5 percentage of total docetaxel
[5]; 22 hours
  Docetaxel release in plasma: 43 percentage of total docetaxel

## BHALys[Lys]32[α-DGA-DTX]32[ε-PEG1100]32 [Example 3 (b)]
MDA-MB-231 tumours; [6]
  Mean tumour Volumne mm^3 (sd): 111.74 (6.65), mm^3
MDA-MB-231 tumours; Day 9, same doses
  Mean tumour Volumne mm^3 (sd): 84.02 (6.33), mm^3
MDA-MB-231 tumours; Day 19, same doses
  Mean tumour Volumne mm^3 (sd): 28.26 (1.91), mm^3
MDA-MB-231 tumours; Day 29, same doses
  Mean tumour Volumne mm^3 (sd): 10.46 (0.5), mm^3
MDA-MB-231 tumours; Day 40, same doses
  Mean tumour Volumne mm^3 (sd): 5.92 (1.31), mm^3
MDA-MB-231 tumours; Day 61, same doses
  Mean tumour Volumne mm^3 (sd): 4 (0), mm^3
MDA-MB-231 tumours; Day 81, same doses
  Mean tumour Volumne mm^3 (sd): 0.5 (0), mm^3
MDA-MB-231 tumours; Day 100, same doses
  Mean tumour Volumne mm^3 (sd): 0.5 (0), mm^3
MDA-MB-231 tumours; Day 120, same doses
  Mean tumour Volumne mm^3 (sd): 0.37 (0.12), mm^3
[2]
  Water solubility of dendrimer: 89 mg/mL
  Equivalent drug solubility on dendrimer: 23 mg/mL
ES2 (Ovarian)
  GI50: 4 nM
MDA-MB-231 (Breast)
  GI50: 0.5 nM
H460 (Lung)
  GI50: 8 nM
A549 (Lung)
  GI50: 3.5 nM
A2058 (Melanoma)
  GI50: 2 nM
PC-3 (Prostate)
  GI50: 4.5 nM
MCAS (Ovarian)
  GI50: 7 nM
HT29 (Colon)
  GI50: 2 nM
HCT116 (Colon)
  GI50: 1 nM
DU145 (Prostate)
  GI50: 4 nM
[3]
  Mean Tumour Weights (g) (sd): 0.020 g
[5]; 0.5 hours
  Docetaxel release in plasma: 8.5 percentage of total docetaxel
[5]; 2.5 hours
  Docetaxel release in plasma: 32.5 percentage of total docetaxel
[5]; 22 hours
  Docetaxel release in plasma: 73 percentage of total docetaxel
